Laboratory results taken from patent US8535736B2, “Methods and compositions for the treatment of infection or infectious colonization of the eyelid, ocular surface, skin or ear” (Advanced Vision Research, Inc, priority 2006, dated 2013).

How the values were obtained:
Staphylococcus aureus = assay: Kill-time test (exposure time, survivors, log and percent reduction in CFU); type: cell-based; conditions: at 1 minute
Experimental: (§1) The following experiments were performed with a number of topical preparations to test the efficacy of each preparation against both gram negative and gram positive bacteria. The data is presented in tables showing the organism which the preparation was tested against, the exposure time, the number of survivors, the log reduction and the percent reduction in CFUs (Colony Forming Units).
(§2) Experiments were performed with tea tree oil, manuka oil, alpha-terpineol, and linalool in the EyeCI vehicle. The EyeCL vehicle (Advanced Vision Research, Woburn, Mass.) and OcuSoft Lid Scrub Foaming Eyelid Cleanser (CYNACON/OCUSOFT, Rosenberg, Tex.) were tested as controls.

Pseudomonas aeruginosa = assay: as above; type: cell-based; conditions: Linalool 0.75% alone, at one minute
Experimental: as §1, §2

P. aeruginosa = conditions: disc diffusion and broth dilution methods; cited from earlier work

Row | SMILES | log reduction in S. aureus killing (Staphylococcus aureus; 0.75% linalool alone) [log] | log reduction in S. aureus (Staphylococcus aureus; 0.85% linalool) [log] | log of Pseudomonas killing (Pseudomonas aeruginosa) | activity against P. aeruginosa (P. aeruginosa)
1 | C=CC(C)(O)CCC=C(C)C (centres unmarked) [linalool] | ~1 | > 1 | greater than 1 log | inactive
2 | CC1=CCC(C(C)(C)O)CC1 (stereo not drawn) [alpha-terpineol] |  |  |  | inactive
